Experiments:
[1] = tested on: rituximab CAR-T cells; experiment: Antigen-independent activation and exhaustion marker expression by flow cytometry, rituximab CAR-T cells; format: cell-based, human; conditions: for measures of antigen-independent CAR-T cell activation: FIG. 1B-D (markers, TNF-α, cell division), MYCi975 2 μM
Excerpt: FIG. 1A-G. Pharmacological inhibition of PI3K/AKT pathway modulates antigen-independent CAR-T cell activation. (A) Table of pharmacological inhibitors used during ex vivo expansion of rituximab CAR-T cells (left). Simplified schematic of the PI3K/AKT signaling axis where black arrows represent activation (right). (B) Activation marker expression by CAR^+ T cells in the absence of antigen stimulation after 5 days of pharmacological modulation. Data bars indicate the means of technical triplicates±1 S.D. The bars in FIG. 1B represent data from, untreated, vehicle, CAL-101, AZD5363, Rapamycin, MYCi975, and Betulin, respectively, from left to right. (C) TNF-α production CAR^+ T cells in the absence of antigen stimulation as quantified by intracellular flow cytometry. Data bars indicate the means of technical triplicates±1 S.D. The bars in FIG. 1B and FIG. 1C represent data from, untreated, vehicle, CAL-101, AZD5363, Rapamycin, MYCi975, and Betulin, respectively, from left to right. (D) Proliferation of CAR^+ T cells stained with CellTrace Violet (CTV) dye was assayed after a 4-day culture in the absence of target cells or exogenous cytokines. Data shown in the histogram correspond to one of technical triplicates shown in the bar graph. The bars FIG. 1D represent data from, EGFRt, untreated, vehicle, CAL-101, AZD5363, Rapamycin, MYCi975, and Betulin, respectively, from left to right. (E) % distribution of T-cell subtypes in CAR^+ T cells after 5 days of pharmacological modulation. Data bars indicate the means of technical triplicates±1 S.D. (F) Rituximab CAR-T cell fold expansion after 6 days of inhibitor culture was tracked. T-cell fold expansion was normalized to the untreated control with each data point representing biological replicates collected from healthy donors. The bars FIG. 1F represent data from, EGFRt, vehicle, CAL-101, AZD5363, Rapamycin, MYCi975, and Betulin, respectively, from left to right. (G) A 24-hr lysis assay of CD20 CAR-T cells against Raji target cells at three effector-to-target (E:T) ratios. Data bars indicate the means of technical triplicates±1 S.D. Percent lysis was normalized to cell counts in target-only wells. […] In (B)-(F), results are representative two independent experiments using cells from of two heathy donors. Statistical significance in panels B, C, and D was determined by two-tailed Student's t test with Sidak correction for multiple comparisons. * p<0.05, ** p<0.01, *** p<0.001, n.s. not statistically significant. […]
Antibody staining for flow-cytometry analysis. EGFRt expression was measured with biotinylated cetuximab (Eli Lilly; biotinylated in-house), followed by PE-conjugated streptavidin (Jackson ImmunoResearch #016-110-084). CAR expression was quantified by surface epitope staining using anti-Fc (Alexa Fluor 488, Jackson ImmunoResearch #709-546-098). Antigen-independent activation-marker expression of CAR-T cells was evaluated by antibody staining for CD137 (PE/Cy7, clone 4B4-1, BioLegend #309818), and PD-1 (FITC, clone EH12.2H7, BioLegend #329904) on Days 18 (i.e., 18 days after Dynabead addition and 11 days after Dynabead removal) and after 5-6 days of inhibitor culture (FIG. 1, FIG. 3). T-cell subtype of CAR-T cells was evaluated by antibody staining for CD45RO (VioBlue®, clone REA611, Miltenyi #130-119-620) and CD62L (APC, clone DREG56, Invitrogen #17-0629-42) after 5-6 days of inhibitor culture (FIG. 1, FIG. 3). […]

[2] = tested on: Raji target cells; experiment: 24-hr lysis assay of inhibitor-treated Leu16 CAR-T cells against Raji; format: cell-based; conditions: three E:T ratios, vs vehicle-treated
Excerpt: FIG. 4A-C. Characterization of pharmacologically treated Leu16 CAR-T cells in vitro. (A) TNF-α production CAR+ T cells in the absence of antigen stimulation as quantified by intracellular flow cytometry. Data bars indicate the means of technical triplicates ±1 S.D. ns not statistically significant. (B) Leu16 CAR-T cell fold expansion after 6 days of inhibitor culture was tracked. The bars in FIGS. 4A and 4B, represent data from, EGFRt, Leu16-28z (vehicle), Leu16-28z (MYCi975), Leu16-28z (Betulin), and Leu16-28z (Rapamycin), respectively, from left to right. (C) A 24-hr lysis assay of CAR-T cells against Raji target cells at three effector-to-target (E:T) ratios. Data bars indicate the means of technical triplicates±1 S.D. Percent lysis was normalized to cell counts in target-only wells.
Cytotoxicity assay with Raji cells. Raji cells were seeded at 2×10^5 cells/well in 96-well U-bottom plate and coincubated with CAR^+ T cells at 1:1, 3.33:1, and 10:1 E:T ratios. Untransduced T cells were added to wells as needed to normalize for differing transduction efficiencies and ensure the total number of T cells per well was consistent throughout. Remaining target cells were quantified by MACSQuant VYB flow cytometer 24-hr post co-incubation.

Compound | tonic signaling [1] | measures of antigen-independent CAR-T cell activation [1] | lysis of Raji tumor cells [2]
C=C(C)[C@@H]1CC[C@]2(CO)CC[C@]3(C)[C@H](CC[C@@H]4[C@@]5(C)CC[C@H](O)C(C)(C)[C@@H]5CC[C@]43C)[C@@H]12 [betulin, Betulin] | increased | increased most measures | clustered together
MYCi975 | increased | increased most measures | clustered together

— patent publication US20250345426A1, “METHODS FOR MAKING AND USING THERAPEUTIC CELLS” (THE REGENTS OF THE UNIVERSITY OF CALIFORNIA, priority 2022, published 2025)
